One series deals with microbivorous nematodes. The following applies: 1-5 mgs KN3 per kg of soil, one week after application. The procedure: (§1) The liquid potassium azide compound was added to the soil in an aqueous solution of amounts of: 1, 2, 3, 4 and 5 mgs KN3 per kg of soil. The formulation used for this experiment 1% KN3 and 0.5% sodium lauryl sulfate. Soil samples were collected one week after the application of the KN3 solution for nematological analysis using such techniques as the salad bowl incubation technique.

For another series, the system named is reniform nematode. The procedure:
as §1

The test system of series [1] is weeds.
A further series has as its system "Young" soybean. Conditions: range 1-8 mgs/Kg soil; sharpest increases at 1 and 2 mgs rates; soybean grown 7 weeks. The procedure:
(§2) In this example, the soil used was from a cotton field infested with the root-knot [Meloidogyne incognita], and lance [Hoplolaimus galeatus], nematodes—each a plant parasitic specie. The soil was mixed with washed siliceous river sand (in equal parts by volume), apportioned into one kg amounts in 4 L plastic bags and placed in pots. The test solution was prepared by dissolving 0.500 gms KN3 in an aqueous solution containing 50 mls of a 10% casein [w/v] solution in 0.1N NaOH and diluting with water to a final volume of 500 mls; the solution thus contained 1 mg KN3/ml. The solution was added to soil at rates of 1, 2, 4, 6, 8, and 10 mls/Kg soil. There were for each treatment and controls [no solution], a total of 7 pots each containing 1 Kg of soil. After application of the solution, for each rate, each pot was covered with a plastic bag. The pots were placed on a greenhouse bench and were arranged in a randomized block design. After 10 days the covers were removed, soil samples were collected from each pot for nematological analyses and “Young” soybean were planted [5 seed/pot]. The resulting plants were allowed to grow for 7 weeks when they were carefully separated from the soil and growth parameters measured. The roots and final soil samples were incubated to determine nematode populations. Nematode numbers in soil and roots were determined using the salad bowl incubation technique.

Series [2] concerns beneficial microbivorous nematodes. The procedure: as §2
Series [3] deals with root-knot nematode. Conditions: applications of ≧2 mgs KN3/Kg soil, 10 days after application. The procedure: as §2
For another series, the system named is lance nematode. The following applies: applications of ≧2 mgs KN3/Kg soil, 10 days after application. The procedure: as §2
Series [4] deals with plant parasitic nematodes. From the text:
(§3) The square microplots of 1 ft^2 [929 cm^2] and 2 feet [61 cms] deep having an open-bottom were used. Each microplot was delimited by a terra-cotta chimney flue. The soil filling the plot was a sandy loam [pH=6.2; organic matter content <1.0%; C.E.C <10 meq/100 g soil] and was infested with the nematodes: Meloidogyne incognita [root-knot], Paratrichodorus minor [stubby root], Tylenchorhynchus claytoni [stunt], and Helicotylenchus dihystera [spiral]. Weeds introduced into the plots were principally crabgrass [Digitaria sanguinalis], yellow nutsedge [Cyperus esculentum], pigweed [Amaranthus spp.], and morning glories [Ipomea spp., Jacquemontia tamnifolia].
(§4) The plots were covered with standard polyethylene [1 mil] and after 10 days the cover was removed, the number of weeds was determined, soil samples for nematological analyses were taken and each plot was planted with two 3-week old ‘Black Beauty’ eggplant [Solanum melongena] seedlings. The plants were grown for 2 months and data were collected on yield, weed infestation and nematode populations.

Another series relates to 'Black Beauty' eggplant. Conditions: eggplant grown 2 months; rates 0-5.0 g/plot.
Description: as §3, §4

Series [5] relates to weeds.
Description: as §3, §4
The source holds these as a separate data set.

In a further series the test system is pepper or tomato plants. The following applies: seedlings transplanted 6 weeks after NaN3 application, 100 and 200 kg/ha.
For series [6], the system named is plant parasitic nematodes (cotton wilt complex Fusarium oxysporum f sp. vasinfectum×Meloidogyne incognita). Conditions: all NaN3 dosages, 10-100 mgs a.i./kg soil; 8 weeks after planting. The procedure:
(§5) The aqueous formulation was a solution containing 1% [w/v] […] After thorough mixing, the contents of a bag were poured into 1 L capacity, 10-cm-diam cylindrical plastic pots which were then covered with standard polyethylene [[…]]. Each rate and the no treatment control was represented by 7 replications [pots] arranged in a randomized complete block design. Ten days after application of the chemical solution, the pots were uncovered and 5 seed of “Rowden” cotton [Gossypium hirsutum] were planted in each pot. The resulting plants were grown for 8 weeks. When the plants were removed after 8 weeks, soil samples were collected for nematological analyses. The shoots and roots of the plants were weighed and the root systems were examined and indexed for disease severity symptoms. Following examination, the roots were incubated to determine nematode populations.

The subject of another series is "Rowden" cotton. The procedure:
as §5

For another series, the system named is 'Huskie' tomato. The following applies: tomato grown 3 months. From the text:
(§6) The formulation contained 5% [w/v] […] Soil in the microplots was a sandy loam [pH=6.2; organic matter content <1.0%; C.E.C <10 meq/100 g soil] infested with the nematodes: Meloidogyne incognita, Paratrichodorus minor, Tylenchorhynchus claytoni, and Helicotylenchus dihystera 1]. Weeds in the plots were principally crabgrass [Digitaria sanguinalis], yellow nutsedge [Cyperus esculentum], pigweed [Amaranthus spp.], and morning glories [Ipomea spp., Jacquemontia tamnifolia].
(§7) The plots were covered with standard polyethylene [1 mil] tarp immediately after application of the chemical. After 10 days the cover was removed, the number of weeds was determined, soil samples for nematological analyses were taken and each plot was planted with two 4-week old ‘Huskie’ tomato seedlings. The plants were grown for 3 months and data were collected on yield, number of fruits, weed infestation and nematode populations.

Series [7] concerns coastal bermuda grass, yellow nutsedge and other weeds. From the text:
(§8) The soil was a calcareous silty clay loam with pH 7.8 and <1% organic matter. […] Each dosage rate was delivered into pre-acidified soil as well as in non-acidified and administered using 3 different water levels: 3, 10, and 15 L/m^2. Acidification was with H2SO4 to lower soil pH to less than 7.00. […] After 3 weeks the soil was uncovered and a soil sample was removed for nematological analyses and the weeds were counted.

In series [8] the test system is root-knot nematode. Conditions: dosages of 100 and 200 kg/ha, 3 weeks after application.
Description: as §8

Series [9] concerns weeds. The series is described as follows: Microplot experiment, amine-protein stabilized NaN3, weed control (Example 3). It counts as in vivo. The following applies: all but the three lowest rates of NaN3.
Description: as §6, §7

Series [10] deals with plant parasitic nematodes. As to the kind of experiment: Microplot experiment, amine-protein stabilized NaN3, nematode control (Example 3). Format: in vivo.
Description: as §6, §7

Where [11] appears, read: plots treated with ≦2.0 g NaN3 rates.
[12] abbreviates: three highest rates (3.0, 4.0, 5.0 g/plot).

Where two headings read alike, the source gives them in different places.

Take `[K+].[N-]=[N+]=[N-]` [KN3, potassium azide]: the “numbers of microbivorous nematodes in response to increasing KN3” value in the series with microbivorous nematodes is given as “declined in an almost linear fashion”. Moreover, the “numbers of reniform nematode in response to increasing KN3” value in the series with reniform nematode (1-5 mgs KN3 per kg of soil, one week after application) is listed as “declined exponentially”. Besides, the “control of the reniform nematodes” value in the series with reniform nematode (rates of 4-5 mg of KN3 per kg of soil) was about 100%. The number of weeds entry with weeds [1] (KN3 rates of 20-200 mg/kg of soil) is “declining in proportion to rates used”. Moreover, in the series with weeds [1] (rates of greater than 140 mg/kg of soil), the “control rates for weeds” value is “over 80%”. In addition, the “plant response as measured by the weights of shoots and roots” value in the series with "Young" soybean is “positive and pronounced”. Besides, the “numbers of beneficial microbivorous nematodes” value in series [2] (1 and 2 mg application rates) is listed as “pronounced stimulation”. In addition, the “populations of beneficial microbivorous nematodes” value in series [2] (application rates <6 KN3/Kg, final soil) was “not adversely affected”. For the same compound, the “application rate necessary to significantly reduce or eliminate microbivorous nematodes” value in [2] (in vivo) is over 4 mgs/Kg soils. The “root-knot nematode population in the preplant sample” value with root-knot nematode [3] is “eliminated”. Besides, in the series with lance nematode, the “lance nematode population in the preplant sample” value is given as “eliminated”.
For the compound `[N-]=[N+]=[N-].[Na+]` [NaN3, sodium azide], the “nematodes in planting time soil samples” value in [4] (10 days after drench, plots treated with 0.5-5.0 g sodium azide/plot, control plots infested with all species) is on record as “no nematodes”. For the same compound, the “plant parasitic nematodes at the end of the experiment” value in [4] (setting [11]) is recorded as “significant populations”; in series [4] (setting [12]), “no plant parasitic nematodes”; in series [10] (all rates of application), “no plant parasitic nematodes”. In addition, the “yield and number of fruits” value with 'Black Beauty' eggplant was “increased directly in response to NaN3 rates from 0-1.5 g/plot and leveled out”; in the series on 'Huskie' tomato, “increased directly in response to NaN3 rates from 0-4 g/plot”. The weeds at planting entry in the series on weeds [5] (10 days after drench, all but the two lowest rates of NaN3) was “no weeds”. For the same compound, the “weeds at the end of the experiment” value with weeds [5] (setting [11]) is “significant populations”. In addition, in the series with weeds [5] (setting [12]), the “weed infestation at the end of the experiment” value is “no significant weed infestation”. In the series on pepper or tomato plants, the “phytotoxicity to pepper or tomato plants” value is given as “no evidence of phytotoxicity”. Besides, the “plant parasitic nematodes in soil and roots” value in series [6] is “eliminated from the soil and roots”. Further, the “weights of shoots and roots” value is “Sharp increases” with "Rowden" cotton (NaN3 rates 10-60 mgs/kg soil) and “no additional weight increments” in the series with "Rowden" cotton (NaN3 rates ≧70 mgs/kg soil). In the series with "Rowden" cotton (all NaN3 dosages, 10-100 mgs/kg soil), the “cotton root health [root condition index]” value is recorded as “markedly improved”. Besides, the effectiveness against nutsedge result in series [7] (100 and 200 kg/ha) is “particularly effective”. Further, the weeds controlled entry in series [7] (dosages of 100 and 200 kg/ha, 3 weeks after application) is “all weeds”. Also, in the series on root-knot nematode [8], the nematodes controlled entry was “greater than 90%”. For the same compound, in the series on weeds [9], the “weeds at planting time” value is on record as “no weeds”. Also, the “nematodes in soil samples at planting” value in series [10] (10 days after drench, 0.5-5.0 g/plot, controls had significant numbers of all species) was “did not contain nematodes”.

These data come from US6852341B2 (priority 2000, dated 2005).
